The target in the test is T1, human PAR-2 (hPAR-2) receptor expressed in HEK-293 T cells in an endogenous manner (Homo sapiens, UniProt P55085).
T1 construct: human PAR-2 (hPAR-2) receptor expressed in HEK-293 T cells in an endogenous manner; endogenous in cells; host or cells: HEK-293 T cells
T1 sequence (P55085 26-397): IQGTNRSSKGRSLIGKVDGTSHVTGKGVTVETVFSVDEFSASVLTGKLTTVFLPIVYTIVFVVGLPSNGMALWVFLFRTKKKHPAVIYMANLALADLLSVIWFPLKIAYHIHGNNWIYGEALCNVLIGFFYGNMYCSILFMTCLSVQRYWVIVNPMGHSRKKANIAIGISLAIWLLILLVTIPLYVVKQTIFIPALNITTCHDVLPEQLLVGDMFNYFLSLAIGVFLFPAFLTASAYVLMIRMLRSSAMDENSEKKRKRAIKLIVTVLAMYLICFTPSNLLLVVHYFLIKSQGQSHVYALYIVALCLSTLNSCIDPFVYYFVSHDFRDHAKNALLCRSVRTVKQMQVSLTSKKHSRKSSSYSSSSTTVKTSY
The experiment in a line: In vitro human PAR-2 functional antagonist activity using calcium assays (Fluo4AM, FLIPR Tetra). The test is classed as cell-based. The note with it: HEK-293 T cells stimulated by an EC80 of the 2-Furoyl-LIGRLO-NH2 peptide after 10 min incubation with compound; 20 concentrations, duplicate, two independent experiments. An outline of the steps: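 Antagonist activity was taken as the decrease in the calcium response to an EC80 of 2-Furoyl-LIGRLO-NH2, measured over 5 min. The agonist was added after a 10 min compound-alone step on the same plate. The HEK-293 T cells express PAR-2 endogenously and were loaded with 1 μM Fluo4AM. Signals were referenced to buffer and EC80-alone controls.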

Where only a bound is given, the exact number is not on record here.

Regarding `CC(C)Cc1nn(-c2ccc(Cl)c(F)c2)c2ccc(C(=O)N3CCC(C(=O)O)C(C)(C)C3)nc12` (stereo not drawn) [Example 69, 1-(1-(4-chloro-3-fluorophenyl)-3-isobutyl-1H-pyrazolo[4,3-b]pyridine-5-carbonyl)-3,3-dimethylpiperidine-4-carboxylic acid], the IC50 (commonly the point on the concentration scale where inhibition reaches its midpoint) is more than 10000 nM.

As to `CC1(C)CN(C(=O)CCCCCCC(=O)O)CCN1C(=O)c1ccc2c(-c3ccc(Cl)c(F)c3)cn(C(C)(C)C)c2n1` [Example 215, 8-(4-(1-(tert-butyl)-3-(4-chloro-3-fluorophenyl)-1H-pyrrolo[2,3-b]pyridine-6-carbonyl)-3,3-dimethylpiperazin-1-yl)-8-oxooctanoic acid], the IC50 was less than 20 nM.

For `Cc1cc(N2CCN(C(=O)c3ccc4c(-c5ccc(Cl)c(F)c5)cn(C[C@H]5CCOC5)c4n3)C(C)(C)C2)nc(C)c1C(=O)O` [Example 184, (R)-6-(4-(3-(4-chloro-3-fluorophenyl)-1-((tetrahydrofuran-3-yl)methyl)-1H-pyrrolo[2,3-b]pyridine-6-carbonyl)-3,3-dimethylpiperazin-1-yl)-2,4-dimethyinicotinic acid], the IC50 was less than 20 nM.

Turning to `Cc1cc(N2CCN(C(=O)c3cnc4c(-c5ccc(Cl)c(F)c5)cn(CC(C)C)c4n3)C(C)(C)C2)nc(C)c1C(=O)O` [Example 190, 6-(4-(7-(4-chloro-3-fluorophenyl)-5-isobutyl-5H-pyrrolo[2,3-b]pyrazine-3-carbonyl)-3,3-dimethylpiperazin-1-yl)-2,4-dimethylnicotinic acid], the IC50 is less than 20 nM.

Turning to `COC(=O)C1CCN(C(=O)c2ccc3c(-c4ccc(Cl)c(F)c4)cn(C(C)(C)C)c3n2)CC1(C)C` (stereo not drawn) [Example 21, methyl 1-(1-(tert-butyl)-3-(4-chloro-3-fluorophenyl)-1H-pyrrolo[2,3-b]pyridine-6-carbonyl)-3,3-dimethylpiperidine-4-carboxylate], the IC50 was 20 to 10000 nM.

In the case of `COCC(C)(C)n1cc(-c2ccc(Cl)c(F)c2)c2ccc(C(=O)N3CCNC(=O)C3(C)C)nc21` [Example 151, 4-(3-(4-chloro-3-fluorophenyl)-1-(1-methoxy-2-methylpropan-2-yl)-1H-pyrrolo[2,3-b]pyridine-6-carbonyl)-3,3-dimethylpiperazin-2-one], the IC50 was less than 20 nM.

Take `CC1(C)C(=O)N(CC(=O)O)CCN1C(=O)c1ccc2c(-c3ccc(Cl)c(F)c3)cn(C(C)(C)C)c2n1` [Example 4, 2-(4-(1-(tert-butyl)-3-(4-chloro-3-fluorophenyl)-1H-pyrrolo[2,3-b]pyridine-6-carbonyl)-3,3-dimethyl-2-oxopiperazin-1-yl)acetic acid]: the IC50 was 20 to 10000 nM.

Regarding `CC(C)Cn1cc(-c2ccc3c(c2)OCO3)c2ccc(C(=O)N3CCNC(=O)C3(C)C)nc21` [Example 223, 4-(3-(benzo[d][1,3]dioxol-5-yl)-1-isobutyl-1H-pyrrolo[2,3-b]pyridine-6-carbonyl)-3,3-dimethylpiperazin-2-one], the concentration for half-maximal inhibition (IC50) lay in the range of 20 to 10000 nM.

As to `CC(C)(C)n1cc(-c2ccc(Cl)c(F)c2)c2ccc(C(=O)N3C[C@@H]4[C@@H](CC(=O)O)[C@@H]4C3)nc21` [Example 124, 2-((1R,5S,6s)-3-(1-(tert-butyl)-3-(4-chloro-3-fluorophenyl)-1H-pyrrolo[2,3-b]pyridine-6-carbonyl)-3-azabicyclo[3.1.0]hexan-6-yl)acetic acid], the IC50 is less than 20 nM.

As to `Cc1cc(N2CCN(C(=O)c3ccc4c(-c5ccc(Cl)c(F)c5)cn(C[C@H]5CCCO5)c4n3)C(C)(C)C2)nc(C)c1C(=O)O` [Example 212, (R)-6-(4-(3-(4-chloro-3-fluorophenyl)-1-((tetrahydrofuran-2-yl)methyl)-1H-pyrrolo[2,3-b]pyridine-6-carbonyl)-3,3-dimethylpiperazin-1-yl)-2,4-dimethylnicotinic acid], the IC50 was less than 20 nM.

For `COC(=O)c1c(C)cc(N2CCN(C(=O)c3ccc4c(n3)c(CC(C)C)nn4-c3ccc(Cl)c(F)c3)C(C)(C)C2)nc1C` [Example 64, methyl 6-(4-(1-(4-chloro-3-fluorophenyl)-3-isobutyl-1H-pyrazolo[4,3-b]pyridine-5-carbonyl)-3,3-dimethylpiperazin-1-yl)-2,4-dimethylnicotinate], the IC50 is more than 10000 nM.

Turning to `Cc1cc(N2C[C@@H]3C[C@H]2CN3C(=O)c2ccc3c(-c4ccc(Cl)c(F)c4)cn(C(C)(C)C)c3n2)nc(C)c1C(=O)O` [Example 148, 6-((1S,4S)-5-(1-(tert-butyl)-3-(4-chloro-3-fluorophenyl)-1H-pyrrolo[2,3-b]pyridine-6-carbonyl)-2,5-diazabicyclo[2.2.1]heptan-2-yl)-2,4-dimethyinicotinic acid], the IC50 lay in the range of 20 to 10000 nM.

Turning to `Cc1cc(N2CCN(C(=O)c3ccc4c(-c5ccc(Cl)c(F)c5)cn(Cc5ccncc5)c4n3)C(C)(C)C2)nc(C)c1C(=O)O` [Example 149, 6-(4-(3-(4-chloro-3-fluorophenyl)-1-(pyridin-4-ylmethyl)-1H-pyrrolo[2,3-b]pyridine-6-carbonyl)-3,3-dimethylpiperazin-1-yl)-2,4-dimethylnicotinic acid], the IC50 is 20 to 10000 nM.

On to `CC1(C)C(=O)NCCN1C(=O)c1ccc2c(-c3ccc(Cl)c(F)c3)cn(CCN3CCCC3=O)c2n1` [Example 41, 4-(3-(4-chloro-3-fluorophenyl)-1-(2-(2-oxopyrrolidin-1-yl)ethyl)-1H-pyrrolo[2,3-b]pyridine-6-carbonyl)-3,3-dimethylpiperazin-2-one], for which the IC50 lay within 20 to 10000 nM.

Take `Cc1cc(N2CCC3(CCN(C(=O)c4ccc5c(-c6ccc(Cl)c(F)c6)cn(C(C)(C)C)c5n4)C3)C2)nc(C)c1C(=O)O` (stereo not drawn) [Example 128, 6-(7-(1-(tert-butyl)-3-(4-chloro-3-fluorophenyl)-1H-pyrrolo[2,3-b]pyridine-6-carbonyl)-2,7-diazaspiro[4.4]nonan-2-yl)-2,4-dimethylnicotinic acid]: the IC50 was more than 10000 nM.

`CCOCCn1cc(-c2ccc(Cl)c(F)c2)c2ccc(C(=O)N3CCNC(=O)C3(C)C)nc21` [Example 42, 4-(3-(4-chloro-3-fluorophenyl)-1-(2-ethoxyethyl)-1H-pyrrolo[2,3-b]pyridine-6-carbonyl)-3,3-dimethylpiperazin-2-one]: the IC50 fell in the range of 20 to 10000 nM.

For the compound `Cc1cc(N2CCN(C(=O)c3ncc4c(-c5ccc(Cl)c(F)c5)cn(CC(C)C)c4n3)C(C)(C)C2)nc(C)c1C(=O)O` [Example 175, 6-(4-(5-(4-chloro-3-fluorophenyl)-7-isobutyl-7H-pyrrolo[2,3-d]pyrimidine-2-carbonyl)-3,3-dimethylpiperazin-1-yl)-2,4-dimethylnicotinic acid], the IC50 lay in the range of 20 to 10000 nM.

For the compound `CC1(C)C(=O)N(CC(N)=O)CCN1C(=O)c1ccc2c(-c3ccc(Cl)c(F)c3)cn(C(C)(C)C)c2n1` [Example 5, 2-(4-(1-(tert-butyl)-3-(4-chloro-3-fluorophenyl)-1H-pyrrolo[2,3-b]pyridine-6-carbonyl)-3,3-dimethyl-2-oxopiperazin-1-yl)acetamide], the IC50 was less than 20 nM.

On to `CC(C)(C)n1cc(-c2ccc(Cl)c(F)c2)c2ccc(C(=O)N3CCC4(CCC(=O)N4)CC3)nc21` [Example 202, 8-(1-(tert-butyl)-3-(4-chloro-3-fluorophenyl)-1H-pyrrolo[2,3-b]pyridine-6-carbonyl)-1,8-diazaspiro[4.5]decan-2-one], for which the IC50 fell in the range of 20 to 10000 nM.

With `Cc1cc(N2CCN(C(=O)c3ccc4c(n3)c(CC(C)C)nn4-c3ccc(Cl)c(F)c3)C(C)(C)C2)nc(C)c1C(=O)O` [Example 65, 6-(4-(1-(4-chloro-3-fluorophenyl)-3-isobutyl-1H-pyrazolo[4,3-b]pyridine-5-carbonyl)-3,3-dimethylpiperazin-1-yl)-2,4-dimethylnicotinic acid], the IC50 lay within 20 to 10000 nM.

In the case of `Cc1cc(N2CCN(C(=O)c3ccc4c(-c5ccc(Cl)c(F)c5)cn(Cc5ncccn5)c4n3)C(C)(C)C2)nc(C)c1C(=O)O` [Example 158, 6-(4-(3-(4-chloro-3-fluorophenyl)-1-(pyrimidin-2-ylmethyl)-1H-pyrrolo[2,3-b]pyridine-6-carbonyl)-3,3-dimethylpiperazin-1-yl)-2,4-dimethylnicotinic acid], the IC50 lay within 20 to 10000 nM.

On to `CN1C(=O)N(C)C2(CCN(C(=O)c3ccc4c(-c5ccc(Cl)c(F)c5)cn(C(C)(C)C)c4n3)CC2)C1=O` [Example 197, 8-(1-(tert-butyl)-3-(4-chloro-3-fluorophenyl)-1H-pyrrolo[2,3-b]pyridine-6-carbonyl)-1,3-dimethyl-1,3,8-triazaspiro[4.5]decane-2,4-dione], for which the IC50 lay in the range of 20 to 10000 nM.

As to `COc1ccc(-c2cn(CC(C)C)c3nc(C(=O)N4CCNC(=O)C4(C)C)ccc23)cn1` [Example 105, 4-(1-isobutyl-3-(6-methoxypyridin-3-yl)-1H-pyrrolo[2,3-b]pyridine-6-carbonyl)-3,3-dimethylpiperazin-2-one], the IC50 lay in the range of 20 to 10000 nM.

As to `CCn1cc(-c2ccc(Cl)c(F)c2)c2ccc(C(=O)N3CCN(c4cc(C)c(C(=O)O)c(C)n4)CC3(C)C)nc21` [Example 129, 6-(4-(3-(4-chloro-3-fluorophenyl)-1-ethyl-1H-pyrrolo[2,3-b]pyridine-6-carbonyl)-3,3-dimethylpiperazin-1-yl)-2,4-dimethylnicotinic acid], the IC50 is less than 20 nM.

Source of the values: patent publication US20240066027A1 (DOMAIN THERAPEUTICS, priority 2020, published 2024).
